# Source: PubChem BioAssay (NCI)
#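 Following 48 hours of exposure in 96-well plates, responses at five concentrations were used to interpolate endpoints linearly. At the TGI there is no net growth.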
# What was measured:
# Test in all cases: NCI tumour cell line growth inhibition, 48 h
# ACHN renal = test system: ACHN renal
# DU-145 prostate = test system: DU-145 prostate
# HL-60(TB) leukemia = test system: HL-60(TB) leukemia
# LOX IMVI melanoma = test system: LOX IMVI melanoma
# NCI-H23 lung = test system: NCI-H23 lung
# OVCAR-5 ovarian = test system: OVCAR-5 ovarian
# SNB-19 CNS = test system: SNB-19 CNS
# SR leukemia = test system: SR leukemia
# UACC-257 melanoma = test system: UACC-257 melanoma
SMILES,TGI (ACHN renal) [µM],TGI (DU-145 prostate) [µM],TGI (HL-60(TB) leukemia) [µM],TGI (LOX IMVI melanoma) [µM],TGI (NCI-H23 lung) [µM],TGI (OVCAR-5 ovarian) [µM],TGI (SNB-19 CNS) [µM],TGI (SR leukemia) [µM],TGI (UACC-257 melanoma) [µM]
CN(C)CCNC(=O)c1cccc2c(NC(CCCN=C(N)N)C(=O)O)c3ccccc3nc12 (stereo not drawn),> 100,> 100,> 100,> 100,30.5,> 100,47,> 100,
CC(C)C(C=O)C(O)(C(F)(F)F)C(F)(F)F (stereo not drawn),> 100,> 100,> 100,> 100,> 100,> 100,> 100,> 100,> 100
O=C(NC1CCCCC1)N1CCNC1=S,> 100,> 100,> 100,> 100,> 100,> 100,,> 100,> 100
OC[C@@H](O)[C@H](O)[C@H](O)[C@@H](O)C1SCCCS1,> 100,> 100,,,> 100,> 100,> 100,> 100,> 100
CN1CN(c2ccccc2)C2(CCN(C(=O)OC(C)(C)C)CC2)C1=O,> 100,> 100,> 100,> 100,> 100,> 100,> 100,> 100,> 100
COc1ccc2cc(CNCCOCCOCCNCc3ccc4cc(OC)ccc4c3)ccc2c1,3.01,3.15,0.657,1.22,3.02,3.89,3.09,2.29,3.18
COc1ccc2nc3c(nc2c1)C(C)(C)C=C3c1ccc(Br)cc1,> 100,> 100,> 100,> 100,,> 100,> 100,> 100,> 100
Nc1nc(Cl)cc(Oc2ccc(Cl)cc2)n1,> 100,> 100,> 100,> 100,> 100,> 100,> 100,> 100,> 100
C=c1c2ccccc2oc2nc3[nH]c(N)c(C#N)c(N)c3c(=N)c12,> 100,> 100,90.3,68.4,62.7,> 100,> 100,,> 100
O=C(O)C(=Cc1ccc(-c2ccc([N+](=O)[O-])cc2)o1)C(=O)O,> 100,> 100,,> 100,> 100,> 100,> 100,> 100,> 100
Cn1c(SCc2ccc([N+](=O)[O-])cc2)nnc1C12CC3CC(CC(C3)C1)C2,> 10,> 10,> 10,> 10,> 10,> 10,> 10,,
COc1c(C(=O)CC2c3c(cc4oc(C)cc(=O)c4c3OC)OC(=N)C2c2nc3ccccc3[nH]2)c(O)c(OC)c2occc12 (stereo not drawn),> 100,> 100,> 100,> 100,> 100,> 100,> 100,,> 100
CC(C)(C)c1ccc(OCCOc2ccc(C(C)(C)C)cc2NC=O)c(NC=O)c1,> 73.2,> 87.9,> 100,19.2,40.7,75.5,> 100,> 48,27.4
Nc1ccc(Oc2ccc(C34CC5CC(C3)CC(c3ccc(Oc6ccc(N)c(O)c6)cc3)(C5)C4)cc2)cc1O,3.5,3.3,,3.11,4.1,4.3,7.5,> 100,4.72
CN(C)CC(O)CNC(=O)Nc1ccccc1 (stereo not drawn),> 100,> 100,> 100,> 100,> 100,> 100,> 100,,> 100
CC(=O)O[C@H]1C(=O)[C@@]2(C)C(C(OC(=O)c3ccccc3)[C@]3(O)CC(OC(=O)C(O)C(NC(=O)c4cccc(Cl)c4)c4ccccc4)C(C)=C1C3(C)C)[C@]1(OC(C)=O)CO[C@@H]1C[C@@H]2O (stereo partly drawn),> 10,5.58,0.419,> 10,> 10,> 10,> 10,5.15,> 10
COC(=O)C1=C(C(=O)OC)SC2(S1)C(C(=O)OC)=C(C(=O)OC)Sc1c2ssc1=O,2.22,2.33,0.0492,0.817,4.12,5.02,34.2,,3.59
CC(=O)OC1CC[C@@]2(C)C(=CC[C@@H]3[C@@H]2CC[C@]2(C)Nc4c(cnn4-c4ccc(F)cc4)C[C@@H]32)C1 (stereo partly drawn),> 100,> 100,> 26,> 58.6,> 100,> 100,> 100,,> 100
Cc1ccc2c(=O)cc(-c3ccccc3)[nH]c2n1,> 100,> 23.7,,> 100,16.8,> 100,> 100,,> 43.4
COc1cccc2c1CCc1sc(CN3CCN(C)CC3)nc1-2,> 100,> 100,,,> 100,> 100,> 100,,> 100
COc1cc(/C=[N+](\[O-])c2ccccc2Cl)ccc1OC(=S)S,> 100,> 100,47.6,> 100,> 100,> 100,> 100,> 100,> 100
CC(=O)[C@H]1CC[C@@H]2[C@]1(C)CC=C1[C@]23C=C[C@]2(C[C@@H](O)CC[C@]12C)C(C(=O)O)C3C(=O)O (stereo partly drawn),> 100,> 100,> 100,> 100,> 100,> 100,> 100,,> 100
O=C(NNC(=O)c1ccccc1O)c1cccs1,,> 100,> 100,> 100,,> 100,> 100,> 100,> 100
O=S1(=O)OCCOS(=O)(=O)C1C1c2ccccc2-c2ccccc21,> 100,> 100,58.9,89,> 100,> 100,> 100,,> 100
